Data: patent US20220409620A1, “REDUCING IMMUNOGENICITY TO PEGLOTICASE” (Horizon Pharma Rheumatology LLC, priority 2016, published 2022)

Tested on: adult patients with uncontrolled gout
Assay: Serum uric acid (sUA) levels and sUA responder rate, open-label study of pegloticase with MTX (MIRROR OL)
Assay type: in vivo, human
Method: The primary objective is to estimate the response rate during Month 6 (Weeks 20, 22, and 24), as measured by the sustained normalization of serum uric acid (SUA) to <6 mg/dL for at least 80% of the time during Month 6 in subjects receiving KXX with MTX.
The primary efficacy outcome endpoint is the sustained normalization of SUA to <6 mg/dL for at least 80% of the time during month 6 (weeks 20, 22, and 24) in subjects receiving KXX with MTX. […] Participants who achieve this endpoint were classified as “responders.” Serum uric acid (SUA) responders may also be defined as participants achieving and maintaining SUA <6 mg/dL for at least 80% of the time during Month 6 (Weeks 20, 22, and 24).
Blood samples may be collected prior to each pegloticase infusion for measurement of SUA levels using the Beckman Coulter AU System Uric Acid procedure. Participants were declared “non-responders” if there were SUA measures >6 mg/dL at 2 consecutive study visits beginning with the week 2 visit. […] This assumption and subsequent discontinuation of pegloticase was consistent with the protocol of large phase III randomized controlled trials and the product label. A formal stopping rule was 2 occasions of SUA levels of greater than 6 mg/dL.
Clinical Chemistry—Blood samples were collected prior to each pegloticase infusion for measurement of SUA levels (primary efficacy parameter) using the Beckman Coulter AU System Uric Acid procedure. In this procedure uric acid is converted to hydrogen peroxide. Hydrogen peroxide reacts with reagent to produce a chromophore which is read bichromatically at 660/800 nm. The amount of dye formed is proportional to the uric acid concentration in the sample.
Serum samples for measurement of SUA levels were collected at the Screening Visit, the Week −4 Visit (prior to the first dose of MTX), and the Week −2 Visit during the MTX Run-in Period; within 48 hours prior to each pegloticase infusion and after the end of each pegloticase infusion prior to discharge from the site during the Pegloticase+IMM Period; at the non-infusion Week 52/End of Study/Early Termination Visits and at the Post Treatment 3 and 6 Month Follow-up Visits. Additional serum samples for SUA levels were collected at optional non-infusion (Frequent Sampling) Visits at Weeks 1 and 7. […] Subjects with SUA level >6 mg/dL at 2 consecutive visits beginning at Week 2 visit discontinued treatment, completed the End of Pegloticase Infusion Visit procedures within 2 weeks and continued the subject visits according to the protocol (without treatment).
Efficacy analyses were performed using the modified intention-to-treat (mITT) population, defined as all enrolled subjects who received ≥1 dose of pegloticase. The proportion of Month 6 responders was summarized, along with a 95% confidence interval for the proportion. The proportion of Month 3 and overall (Months 3 and 6 combined) responders was analyzed similarly.
A subject was declared a non-responder if the subject had SUA level >6 mg/dL at 2 consecutive study visits beginning with the Week 2 Visit. In addition, a subject who withdraws from study treatment for any reason after the first dose of pegloticase in the KXX+MTX Period and prior to Month 6 (for the primary endpoint) or Month 3 (for the secondary endpoint) was considered a non-responder if SUA values were not collected at the planned time points.
Patients were administered oral MTX (15 mg/week) and folate (1 mg/day) 4 weeks prior to the first pegloticase infusion (Day 1) and throughout the pegloticase treatment period. Blood was drawn prior to each infusion to measure sUA level, monitor clinical parameters, and examine for ADA development. All patients followed typical IR prophylaxis protocols (fexofenadine one day before and the morning of each infusion and acetaminophen and IV corticosteroid the morning of each infusion).

[1] = Day 1 - Post-Infusion, mITT Population
[2] = Early Termination Visit, mITT Population
[3] = End of Pegloticase Infusions Visit, mITT Population
[4] = Month 6 sUA Non-Responders, Day 1-Post-Infusion, n=3
[5] = Month 6 sUA Non-Responders, Early Termination Visit, n=3
[6] = Month 6 sUA Non-Responders, Week 1, n=2
[7] = Month 6 sUA Non-Responders, Week 2-Post-Infusion, n=3
[8] = Month 6 sUA Non-Responders, Week 2-Pre-Infusion, n=3
[9] = Month 6 sUA Non-Responders, Week 4-Pre-Infusion, n=3
[10] = Month 6 sUA Non-Responders, Week 8-Post-Infusion, n=1
[11] = Month 6 sUA Non-Responders, Week 8-Pre-Infusion, n=1
[12] = Month 6 sUA Non-Responders, Week 10-Pre-Infusion, n=1
[13] = Month 6 sUA Responders, Day 1-Post-Infusion, n=8

## pegloticase
[1]
  Serum Uric Acid, Change from Baseline, Mean (SD): −7.29 (2.254) mg/dL
  Serum Uric Acid, Change from Baseline, Median: -7.30 mg/dL
  Serum Uric Acid, Observed, Mean (SD): 1.18 (1.417) mg/dL
  Serum Uric Acid, Observed, Median: 0.30 mg/dL
  sUA <6 mg/dL, n (%): 11 (100%)
[2]
  Serum Uric Acid, Change from Baseline, Mean (SD): −0.57 (0.635) mg/dL
  Serum Uric Acid, Change from Baseline, Median: -0.20 mg/dL
  Serum Uric Acid, Observed, Mean (SD): 8.17 (0.058) mg/dL
  Serum Uric Acid, Observed, Median: 8.20 mg/dL
Early Termination Visit, mITT Population, number of subjects (% not given)
  sUA <6 mg/dL, n (%): 0
[3]
  Serum Uric Acid, Change from Baseline, Mean (SD): −8.50 (1.556) mg/dL
  Serum Uric Acid, Change from Baseline, Median: -8.50 mg/dL
  Serum Uric Acid, Observed, Mean (SD): 0.30 (0.000) mg/dL
  Serum Uric Acid, Observed, Median: 0.30 mg/dL
  sUA <6 mg/dL, n (%): 2 (100%)
[4]
  Serum Uric Acid, Change from Baseline, Mean (SD): −6.60 (2.848) mg/dL
  Serum Uric Acid, Change from Baseline, Median: -7.20 mg/dL
  Serum Uric Acid, Observed, Mean (SD): 2.13 (2.438) mg/dL
  Serum Uric Acid, Observed, Median: 1.20 mg/dL
  sUA <6 mg/dL, n (%): 3 (100%)
[5]
  Serum Uric Acid, Change from Baseline, Mean (SD): −0.57 (0.635) mg/dL
  Serum Uric Acid, Change from Baseline, Median: -0.20 mg/dL
  Serum Uric Acid, Observed, Mean (SD): 8.17 (0.058) mg/dL
  Serum Uric Acid, Observed, Median: 8.20 mg/dL
  sUA <6 mg/dL, n (%): 0%
[6]
  Serum Uric Acid, Change from Baseline, Mean (SD): −8.10 (0.000) mg/dL
  Serum Uric Acid, Change from Baseline, Median: -8.10 mg/dL
  Serum Uric Acid, Observed, Mean (SD): 0.30 (0.000) mg/dL
  Serum Uric Acid, Observed, Median: 0.30 mg/dL
  sUA <6 mg/dL, n (%): 2 (100%)
[7]
  Serum Uric Acid, Change from Baseline, Mean (SD): −8.43 (0.577) mg/dL
  Serum Uric Acid, Change from Baseline, Median: -8.10 mg/dL
  Serum Uric Acid, Observed, Mean (SD): 0.30 (0.000) mg/dL
  Serum Uric Acid, Observed, Median: 0.30 mg/dL
  sUA <6 mg/dL, n (%): 3 (100%)
[8]
  Serum Uric Acid, Change from Baseline, Mean (SD): −5.17 (4.225) mg/dL
  Serum Uric Acid, Change from Baseline, Median: -5.70 mg/dL
  Serum Uric Acid, Observed, Mean (SD): 3.57 (3.775) mg/dL
  Serum Uric Acid, Observed, Median: 2.70 mg/dL
  sUA <6 mg/dL, n (%): 2 (66.7%)
[9]
  Serum Uric Acid, Change from Baseline, Mean (SD): −3.70 (4.744) mg/dL
  Serum Uric Acid, Change from Baseline, Median: -1.80 mg/dL
  Serum Uric Acid, Observed, Mean (SD): 5.03 (4.177) mg/dL
  Serum Uric Acid, Observed, Median: 6.60 mg/dL
[10]
  Serum Uric Acid, Change from Baseline, Mean (SD): −9.10 (NE) mg/dL
  Serum Uric Acid, Change from Baseline, Median: -9.10 mg/dL
  Serum Uric Acid, Observed, Mean (SD): 0.30 (NE) mg/dL
  Serum Uric Acid, Observed, Median: 0.30 mg/dL
  sUA <6 mg/dL, n (%): 1 (100%)
[11]
  Serum Uric Acid, Change from Baseline, Mean (SD): −0.50 (NE) mg/dL
  Serum Uric Acid, Change from Baseline, Median: -0.50 mg/dL
  Serum Uric Acid, Observed, Mean (SD): 8.90 (NE) mg/dL
  Serum Uric Acid, Observed, Median: 8.90 mg/dL
  sUA <6 mg/dL, n (%): 0%
[12]
  Serum Uric Acid, Change from Baseline, Mean (SD): −1.30 (NE) mg/dL
  Serum Uric Acid, Change from Baseline, Median: -1.30 mg/dL
  Serum Uric Acid, Observed, Mean (SD): 8.10 (NE) mg/dL
  Serum Uric Acid, Observed, Median: 8.10 mg/dL
  sUA <6 mg/dL, n (%): 0%
[13]
  Serum Uric Acid, Change from Baseline, Mean (SD): −7.55 (2.158) mg/dL
  Serum Uric Acid, Change from Baseline, Median: -7.50 mg/dL
  Serum Uric Acid, Observed, Mean (SD): 0.83 (0.798) mg/dL
